Values of other authors, collected in patent US20160030469A1, “Human End Uses for a Gas Transporting Rheological Medium” (priority 2014, published 2016).

Details: equilibrium with air (pO2=0.21) at 77° F.

## O=O [oxygen]
  solubility limit of oxygen in water: approximately 8.3 mg/l
